Measured values: PMC11364104, “Discovery of SARS-CoV-2 papain-like protease (PL^pro) inhibitors with efficacy in a murine infection model” (Science Advances, 2024)

Assays:
[1] = Monkey pharmacokinetics; assay type: in vivo; conditions: plasma, Male Cynomolgus Monkey, 1.0 mg/kg iv, solution, mean n=2
Protocol: (§1) from Vital River (Beijing, China) and were typically 7-9 weeks of age at the time of dosing.
(§2) During the pharmacokinetic studies all animals were housed individually. Access to food and water was provided ad libitum (i.e., subjects were dosed in the fed state). In the instances where oral (po) dose was administered in the fed state, with ad libitum access to food and water. Compounds were administered intravenously (iv) via the tail vein (n = 2) dosed as a solution (1 mg/kg, 3 ml/kg) or via oral gavage as a solution (10 mg/kg, 10 ml/kg). Dosing solutions were prepared immediately before dosing. The composition of each dosing vehicle […]
Serial blood samples were collected via the jugular vein cannula at predetermined timepoints after dosing. Animals were monitored for pain or distress throughout the study, with at least daily monitoring during normal husbandry prior to study start. At the completion of the study, animals were euthanized by overdose of inhaled carbon dioxide. Blood samples were collected into tubes containing K2EDTA and stored on ice until centrifugation to obtain plasma, which was stored frozen at - 20 °C or lower.
(§3) Dog pharmacokinetic studies were done at Pfizer (Groton, CT). All procedures performed on beagle dogs were in accordance with regulations and established guidelines and were reviewed and approved by an Institutional Animal Care and Use Committee through an ethical review process. Male Beagle dogs were purchased from Marshall Bioresources (North Rose, NY); subjects 3 years of age were used in pharmacokinetics studies. For each study (n=2), compounds were dosed iv by cephalic vein as a solution (0.5 mg/kg, 1 mL/kg) or via oral gavage as a suspension (3 mg/kg, 5 mL/kg). In the instances where oral (po) dose was administered in the fed state, dogs were fed a couple hours before dosing. In the instances where the IV dose was administered in the fasted state, dogs were fasted over night and fed 4 hours post dose. Subjects were monitored for pain or distress throughout the study followed by at least daily monitoring while off study. The iv dosing vehicle was optimized such that the compounds were in solution and stable for at least 24 h. Serial blood samples were collected via the jugular vein at predefined time points post-dose. […]
Monkey pharmacokinetic studies were conducted at Pfizer (Groton, CT). […] Subjects were monitored for pain or distress throughout the study followed by at least daily monitoring while off study. […]
Plasma samples were processed using protein precipitation with 50:50 acetonitrile: methanol containing terfenadine (5 ng/ml) as an internal standard followed by quantitation against a standard curve (0.1-1000 ng/ml) prepared in blank plasma. Quantitation of analyte in plasma samples was done using LC-MS/MS. […]

[2] = molecular target: T1, Lck Kinase (Homo sapiens, UniProt P06239); assay: CEREP kinase inhibition; assay type: biochemical
T1 construct: purchased Eurofins Cerep

[3] = Rat pharmacokinetics; assay type: in vivo, Wistar-Hannover rat; conditions: for Vd: rat, iv, 1 mg/kg, read-out: Vdss
Protocol: Figure S1. Setting Up the Collaboration Workflow and Operations
Preclinical Pharmacokinetics Studies
All activities involving animals were carried out in accordance with federal, state, local and institutional guidelines governing the use of laboratory animals in research in AAALAC accredited facilities and were reviewed and approved by Pfizer’s or Bioduro’s Institutional Animal Care and Use committee.
Mouse pharmacokinetic studies were done at BioDuro Pharmaceutical Product Development Inc. (Shanghai, PRC); male C57BL6 mice were purchased from Vital River (Beijing, China) and were typically 7-9 weeks of age at the time of dosing. During the pharmacokinetic studies all animals were housed individually. Access to food and water was provided ad libitum (i.e., subjects were dosed in the fed state). Compounds were administered intravenously (iv) via tail vein (n=2) dosed as a solution (1 mg/kg, 3 mL/kg) or via oral gavage as a solution (10 mg/kg, 3 mL/kg and 30 mg/kg, 3mL/kg) or as a suspension (15 mg/kg, 10 mL/kg; 50 mg/kg, 10 mL/kg; and 150 mg/kg, 10mL/kg). Dosing solutions were prepared immediately before dosing. The composition of each dosing vehicle is provided in Tables S5 and S6. Isoflurane was administered as anesthesia at 1-2% dose prior to collecting blood samples. Serial blood samples were collected via the retroorbital capillary at predetermined timepoints after dosing. Animals were monitored for pain or distress throughout the study, with at least daily monitoring during normal husbandry prior to study start. At the completion of the study, animals were euthanized by overdose of inhaled carbon dioxide. Blood samples were collected into tubes containing K2EDTA and stored on ice until centrifugation to obtain plasma, which was stored frozen at - 20 °C or lower until bioanalysis.
Rat pharmacokinetic studies were done at BioDuro Pharmaceutical Product Development Inc. (Shanghai, PRC); jugular vein- cannulated male Wistar-Hannover rats were purchased
(1 picture or pasted object on this page, not shown here) […]
as §1, §2
Serial blood samples were collected via the jugular vein cannula at […]
centrifugation to obtain plasma, which was stored frozen at - 20 °C or lower.
as §3, with “post-dose. Blood” for “post-dose.”

[4] = Wistar-Hannover, plasma, Male Wistar Hanover Rat, 1.0 mg/kg iv, solution, mean n=2
[5] = Wistar-Hannover, plasma, Male Wistar Hanover Rat, 10 mg/kg po, solution, mean n=2

T1 sequence (P06239 whole entry): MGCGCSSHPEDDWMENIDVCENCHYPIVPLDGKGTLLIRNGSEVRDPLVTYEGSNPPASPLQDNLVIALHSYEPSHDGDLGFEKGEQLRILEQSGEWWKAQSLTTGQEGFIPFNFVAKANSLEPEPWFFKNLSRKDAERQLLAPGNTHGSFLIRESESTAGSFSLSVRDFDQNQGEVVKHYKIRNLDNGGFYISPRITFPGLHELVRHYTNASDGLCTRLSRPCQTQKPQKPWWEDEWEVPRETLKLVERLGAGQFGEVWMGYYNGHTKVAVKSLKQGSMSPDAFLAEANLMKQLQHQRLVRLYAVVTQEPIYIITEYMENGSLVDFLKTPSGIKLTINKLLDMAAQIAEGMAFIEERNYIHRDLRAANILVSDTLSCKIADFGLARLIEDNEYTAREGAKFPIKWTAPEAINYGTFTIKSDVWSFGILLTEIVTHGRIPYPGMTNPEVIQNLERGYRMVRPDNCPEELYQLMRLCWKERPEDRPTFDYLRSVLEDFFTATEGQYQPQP

Cc1ccc(N2CCN(C)CC2)cc1C(=O)NC1(c2cc(-c3cnn(C)c3)nc3ccccc23)CC1 [Compound 4]
AUC(0-inf) [1]: 1600 ng·h/mL
half-life [1]: 3.56 h
clearance ([1]; read-out: CLp): 10.7 mL/min/kg
Vd ([1]; read-out: Vdss): 2.09 L/kg
inhibition at 30 µM [2]: -1%
Oral F ([3]; Male Wistar Hanover Rat, 10 mg/kg po, solution, mean n=2): 69.7%
AUC(0-inf) [3, 4]: 668 ng·h/mL
half-life [3, 4]: 3.59 h
clearance ([3]; Wistar-Hannover, plasma, Male Wistar Hanover Rat, 1.0 mg/kg iv, solution, mean n=2, read-out: CLp): 25.2 mL/min/kg
AUC(0-inf) [3, 5]: 4650 ng·h/mL
Cmax [3, 5]: 435 ng/mL
Tmax [3, 5]: 3 h
half-life [3, 5]: 3.19 h
bioavailability ([3]; male, Wistar-Hannover, plasma, po, 10 mg/kg, rat (r), read-out: Oral F (%)): 69.7%
Vd ([3]; male, Wistar-Hannover, plasma, Male Wistar Hanover Rat, 1.0 mg/kg iv, solution, mean n=2): 4.42 L/kg
Vd ([3]; male, Wistar-Hannover, plasma, rat (r), intravenous): 4.4 L/kg
